“Also recorded” adds a separate entry of the source. Like-named read-outs stand apart in the source and are kept apart here.
Tests used:
[1] = biological target: T1, NET (Homo sapiens, UniProt P23975); assay: hNET uptake assay with transporter modulators; type: cell-based
T1 construct: expressed in transfected cells

[2] = biological target: paroxetine binding sites (Homo sapiens, UniProt P31645); assay: Paroxetine binding
[3] = biological target: T2, hDAT (Homo sapiens, UniProt Q01959); assay: [3H]-dopamine uptake after preincubation with modulator; type: cell-based
T2 construct: expressed in transfected cells; host or cells: COS-7, HEK293 or MDCK
Experimental: (§1) COS-7, HEK293, and MDCK cells were maintained in Dulbecco modified Eagle medium (3.5 g/l glucose) supplemented with FBS (10% each) at 37° C. with 5% CO2. Uptake experiments were performed 2 days after transfecting DNAs (hSERT, human dopamine transporter [hDAT], chimeras or mutants, or empty vector for background) with TransIT-LT1 (Minis Bio LLC, Madison, Wis., USA) transfection reagent and plating the cells in 24- or 96-well plates.
(§2) The uptake was allowed to continue for 10 min at room temperature and was terminated by washing with PBS-CM. […] Vmax and KM are given as mean±S.D. of three independent experiments. […] EC50 values are given as mean±S.E.M. of at least five independent experiments. Statistical significance between vehicle and drug treatments was assessed using Student t-test or one-way analysis of variance (ANOVA) Dunnett's multiple-comparison test (p<0.05).

[4] = biological target: T3, SERT (Homo sapiens, UniProt P31645); assay: [3H]-serotonin uptake after preincubation with modulator; type: cell-based; conditions: for effect on Vmax of serotonin uptake: serotonin uptake kinetics
T3 construct: The templates were full-length and nontagged human SERT in pcdna3.1; expressed in transfected cells; host or cells: COS-7, HEK293 or MDCK (uptake); COS-7 (efflux)
Experimental: as §1, §2

[5] = biological target: T4, hSERT wild-type (Homo sapiens, UniProt P31645); assay: Basal/leak [3H]-serotonin efflux in COS-7 cells, wild-type; type: cell-based; conditions: no extracellular substrate, read-out: IC50 inhibition of basal/leak efflux
T4 construct: The templates were full-length and nontagged human SERT in pcdna3.1; expressed in transfected cells; host or cells: COS-7 (efflux)
Experimental: (§3) COS-7 cells were maintained under the same conditions as above. Efflux experiments were performed 2 days after cell transfection with hSERT or empty vector and plating of the cells in 24-well plates. Cells were washed with room temperature PBS-CM and then loaded with 50 nM [^3H]-serotonin for 1 h. After preloading, cells were washed twice with buffer and then incubated for 10 min with or without substrates at room temperature. After incubation, the supernatant was collected, liquid scintillation fluid added, and the samples counted (Beckman LS-6500 Multi-purpose Scintillation Counter; Beckman Coulter, Brea, Calif.). The cells were solubilized in a solution of 0.1% sodium dodecyl sulfate and 0.1 M NaOH; liquid scintillation fluid was added and tubes were counted as above. All assays were done in quadruplicate.
(§4) The percentage of [^3H]-serotonin efflux among different treatments was calculated by adding counts of supernatant plus cell lysis, with the supernatant counts then divided by the total and multiplied by 100 to yield the percentage of efflux.

[6] = biological target: T5, hSERT 112C mutant (Homo sapiens, UniProt P31645, N112C); assay: Basal/leak [3H]-serotonin efflux in COS-7 cells, 112C mutant; type: cell-based
T5 construct: The templates were full-length and nontagged human SERT in pcdna3.1; expressed in transfected cells; host or cells: COS-7 (efflux); COS-7, HEK293 or MDCK (uptake)
Experimental: as §3, §4

[7] = biological target: T6, hSERT 112C mutant (N112C) (Homo sapiens, UniProt P31645, N112C); assay: MDMA-elicited [3H]-serotonin efflux in COS-7 cells, 112C mutant; type: cell-based; conditions: for effect on MDMA-elicited efflux: 112C (N112C) mutant, 1 μM modulator
T6 construct: The templates were full-length and nontagged human SERT in pcdna3.1; expressed in transfected cells; host or cells: COS-7 (efflux)
Experimental: as §3, §4

[8] = biological target: wild-type human SERT (Homo sapiens, UniProt P31645); assay: MDMA-elicited [3H]-serotonin efflux in COS-7 cells, wild-type; type: cell-based; parameters: The templates were full-length and nontagged human SERT in pcdna3.1; expressed in transfected cells; host or cells: COS-7 (efflux); conditions: for effect on MDMA-elicited efflux: 1 μM modulator
Experimental: as §3, §4

[9] = biological target: T3, SERT; assay: cell-based
Experimental: as §1, §2

[10] = tested on: mSERT mutant YETQ-L563V; assay: Substrate-elicited efflux, mSERT mutant YETQ-L563V; type: cell-based, mouse; conditions: up to highest testable concentration
Experimental: (§5) Efflux is terminated by collecting the supernatant. Both cells and supernatant are counted by liquid scintillation counting. Efflux is calculated as ratio of supernatant over supernatant and cells.

[11] = biological target: SmSERT (Schistosoma mansoni, UniProt Q3I1M7); assay: Transport inhibition constants, SmSERT; type: cell-based
[12] = biological target: T3, SERT; assay: SERT-mediated serotonin uptake inhibition by SSRIs in presence of modulator; type: cell-based; conditions: effect weaker than with citalopram
Experimental: as §1, with “plates. The media was removed and the cells were washed with PBS (137 mM NaCl, 2.7 mM KCl, 4.3 mM Na2HPO4, 1.4 mM KH2PO4, pH 7.4) containing 0.1 mM CaCl2, 1 mM MgCl2, 10 μM clorgyline, 10 μM pargyline, 5 μM RO 41-0960, and 100 μM ascorbic acid (PBS-CM).” for “plates.”
Mutants are functionally tested in transfected COS-7 cells. Based on the success of the approach that identified the A1 site, the critical residues identified elsewhere herein are tested for changes in uptake kinetics and amphetamine-mediated efflux. Following this initial screen, residues displaying altered activity are tested further in uptake inhibition and ligand displacement assays. […] Following uptake, cells are washed and radioactivity is counted using liquid scintillation counting. […] Apparent Km and Vmax are determined using nonlinear regression analysis. The interaction of WT and mutant MAT with psychostimulants and transporter inhibitors is assessed using uptake inhibition assays. […]

[13] = biological target: T7, SERT E493D mutant (Homo sapiens, UniProt P31645, E493D); assay: SERT function with mutated extracellular gate; type: cell-based
T7 construct: The templates were full-length and nontagged human SERT in pcdna3.1; expressed in transfected cells; host or cells: COS-7

[14] = biological target: T8, WT hDAT (Homo sapiens, UniProt Q01959); assay: Amphetamine-induced efflux with modulator, hDAT WT; type: cell-based; conditions: 5 nM amphetamine
T8 construct: expressed in transfected cells; host or cells: COS-7, HEK293 or MDCK
Experimental: as §5

[15] = biological target: T9, hDAT N93A mutant (Homo sapiens, UniProt Q01959, N93A); assay: Amphetamine-induced efflux with modulator, hDAT N93A mutant; type: cell-based; conditions: low concentrations of amphetamine
T9 construct: expressed in transfected cells; host or cells: COS-7
T9 sequence (Q01959 1-620 N93A): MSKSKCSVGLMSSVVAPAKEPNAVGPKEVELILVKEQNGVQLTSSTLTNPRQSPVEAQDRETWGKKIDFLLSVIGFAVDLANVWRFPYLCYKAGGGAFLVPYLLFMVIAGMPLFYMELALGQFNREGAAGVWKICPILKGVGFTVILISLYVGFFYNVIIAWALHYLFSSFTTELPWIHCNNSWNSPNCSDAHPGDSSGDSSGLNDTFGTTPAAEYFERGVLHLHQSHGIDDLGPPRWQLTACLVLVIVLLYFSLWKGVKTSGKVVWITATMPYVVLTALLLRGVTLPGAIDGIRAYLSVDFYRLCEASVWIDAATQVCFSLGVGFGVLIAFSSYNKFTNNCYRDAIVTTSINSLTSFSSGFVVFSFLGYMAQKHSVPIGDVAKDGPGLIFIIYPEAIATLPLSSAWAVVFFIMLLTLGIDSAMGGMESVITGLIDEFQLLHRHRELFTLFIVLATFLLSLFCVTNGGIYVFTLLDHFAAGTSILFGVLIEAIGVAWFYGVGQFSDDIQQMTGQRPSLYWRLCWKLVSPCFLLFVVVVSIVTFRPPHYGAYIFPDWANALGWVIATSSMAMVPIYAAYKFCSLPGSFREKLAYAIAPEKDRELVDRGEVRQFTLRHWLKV
Experimental: as §5

[16] = tested on: hDAT L89C mutant (L89A); assay: Dopamine uptake inhibition assay, hDAT L89 mutant; type: cell-based, human
Experimental: Mutants are functionally tested in transfected COS-7 cells. Based on the success of the approach that identified the A1 site, the critical residues identified elsewhere herein are tested for changes in uptake kinetics and amphetamine-mediated efflux. Following this initial screen, residues displaying altered activity are tested further in uptake inhibition and ligand displacement assays. For uptake, cells are washed with PBSCM (phosphate-buffered saline with 1 mM MgCl, 0.1 mM CaCl2, 100 μM ascorbic acid, 10 μM clorgyline, 100 μM pargyline, and 10 μM RO 41-0960). To initiate uptake, cells are incubated for 10 min at 25° C. with various concentrations of radiolabeled monoamine. Following uptake, cells are washed and radioactivity is counted using liquid scintillation counting. […] Apparent Km and Vmax are determined using nonlinear regression analysis. The interaction of WT and mutant MAT with psychostimulants and transporter inhibitors is assessed using uptake inhibition assays. Cells are transfected as described elsewhere herein, but before uptake is initiated the cells are preincubated with various concentrations of ligand for 10 min. Uptake is initiated and performed as described elsewhere herein.

T2 sequence (Q01959 whole entry): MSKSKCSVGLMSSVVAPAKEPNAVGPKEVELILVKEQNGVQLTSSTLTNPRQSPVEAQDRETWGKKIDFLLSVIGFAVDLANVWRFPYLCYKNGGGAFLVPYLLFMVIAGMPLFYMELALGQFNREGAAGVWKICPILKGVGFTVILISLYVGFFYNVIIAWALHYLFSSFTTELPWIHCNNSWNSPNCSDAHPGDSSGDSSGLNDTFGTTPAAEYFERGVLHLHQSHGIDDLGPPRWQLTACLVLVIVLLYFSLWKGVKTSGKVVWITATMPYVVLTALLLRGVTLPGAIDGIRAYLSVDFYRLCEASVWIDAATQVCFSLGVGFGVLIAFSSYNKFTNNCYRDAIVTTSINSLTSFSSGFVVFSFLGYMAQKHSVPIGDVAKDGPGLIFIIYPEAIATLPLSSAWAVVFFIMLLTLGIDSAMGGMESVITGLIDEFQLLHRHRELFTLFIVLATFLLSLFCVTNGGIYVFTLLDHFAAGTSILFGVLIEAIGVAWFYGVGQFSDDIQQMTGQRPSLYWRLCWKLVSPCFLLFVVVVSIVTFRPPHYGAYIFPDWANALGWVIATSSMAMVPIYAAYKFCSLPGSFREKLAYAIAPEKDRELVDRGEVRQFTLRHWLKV
T8 sequence (Q01959 whole entry): as above
T1 sequence (P23975 whole entry): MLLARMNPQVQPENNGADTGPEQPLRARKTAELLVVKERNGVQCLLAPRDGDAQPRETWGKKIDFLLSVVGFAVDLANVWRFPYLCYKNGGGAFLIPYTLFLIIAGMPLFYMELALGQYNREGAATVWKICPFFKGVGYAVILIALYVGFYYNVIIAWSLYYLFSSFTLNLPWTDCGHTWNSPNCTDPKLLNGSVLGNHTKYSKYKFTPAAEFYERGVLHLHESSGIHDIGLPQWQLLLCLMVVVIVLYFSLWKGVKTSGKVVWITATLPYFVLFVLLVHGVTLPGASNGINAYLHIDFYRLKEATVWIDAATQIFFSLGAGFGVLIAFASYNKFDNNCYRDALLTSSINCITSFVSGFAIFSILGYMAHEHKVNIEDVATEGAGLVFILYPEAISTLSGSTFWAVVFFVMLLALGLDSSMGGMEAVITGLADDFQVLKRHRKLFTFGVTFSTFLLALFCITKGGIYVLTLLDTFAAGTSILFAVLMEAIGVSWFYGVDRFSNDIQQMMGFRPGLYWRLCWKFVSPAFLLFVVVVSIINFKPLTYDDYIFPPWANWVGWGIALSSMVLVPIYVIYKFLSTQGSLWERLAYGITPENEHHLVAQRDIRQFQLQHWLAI
SmSERT, sequence (Q3I1M7 entry or part of it): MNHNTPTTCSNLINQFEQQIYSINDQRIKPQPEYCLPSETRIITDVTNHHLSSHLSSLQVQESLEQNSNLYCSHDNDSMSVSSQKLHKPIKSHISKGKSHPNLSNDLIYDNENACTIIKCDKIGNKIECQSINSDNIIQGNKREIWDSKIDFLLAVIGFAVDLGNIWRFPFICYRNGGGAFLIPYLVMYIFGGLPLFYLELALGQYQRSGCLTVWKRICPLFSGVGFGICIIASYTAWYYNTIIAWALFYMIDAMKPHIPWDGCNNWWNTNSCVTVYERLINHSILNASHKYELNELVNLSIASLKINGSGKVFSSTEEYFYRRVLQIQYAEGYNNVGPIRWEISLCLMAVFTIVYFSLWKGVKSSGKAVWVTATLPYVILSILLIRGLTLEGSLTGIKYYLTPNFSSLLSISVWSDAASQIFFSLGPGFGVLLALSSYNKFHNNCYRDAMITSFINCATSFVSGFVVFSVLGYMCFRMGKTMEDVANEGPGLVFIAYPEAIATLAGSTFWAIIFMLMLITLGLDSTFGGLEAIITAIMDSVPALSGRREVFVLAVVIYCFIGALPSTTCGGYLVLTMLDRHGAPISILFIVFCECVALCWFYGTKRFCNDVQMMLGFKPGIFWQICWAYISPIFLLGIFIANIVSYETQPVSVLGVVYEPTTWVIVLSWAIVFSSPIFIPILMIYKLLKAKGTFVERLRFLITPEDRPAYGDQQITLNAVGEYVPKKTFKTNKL

COc1cccc(NC(=O)Cn2c(SCC(=O)Nc3ccc(F)cc3)nnc2-c2ccncc2)c1 [KM-409, N-(4-fluorophenyl)-2-((4-(2-((3-methoxyphenyl)amino)-2-oxoethyl)-5-(pyridin-4-yl)-4H-1,2,4-triazol-3-yl)thio)acetamide]
activity towards NET [1]: displayed activity towards NET

CN(C)c1ccc(C(C(=O)NCc2ccccc2)N(Cc2cccnc2)C(=O)c2snc(C(N)=O)c2N)cc1 (stereo not shown) [ATM7, 4-amino-N^5-{2-(benzylamino)-1-[4-(dimethylamino)phenyl]-2-oxoethyl}-N^5-(3-pyridinylmethyl)-1,2-thiazole-3,5-dicarboxamide]
effect on paroxetine binding sites [2]: decreased
effect on DAT uptake activity / specificity [3]: also DAT activity at higher concentrations
effect on SERT uptake activity / specificity [4]: activated serotonin uptake very potently at nanomolar concentrations
shape of concentration response on transporter uptake [4]: bell-shaped response
activation of serotonin uptake ([4]; dose-response assay): up to 50%
shape of concentration response on transporter uptake ([4]; listed as KM-986): biphasic mode of action, enhancing transporter activity at low concentrations and inhibiting transporter function at higher concentrations
effect on Vmax of serotonin uptake [4]: did not affect Vmax; also recorded: no effect
effect on Vmax of serotonin uptake ([4]; listed as KM-986): do not observe any effect; also recorded: no effect
effect on hSERT uptake at low and high substrate concentration ([4]; substrate 25 and 100 nM): displayed activity only at low concentrations
IC50 [5]: 0.00063 ± 0.00031 µM
IC50 [6]: 0.037 ± 0.025 µM
efficacy of MDMA in eliciting release of intracellular serotonin in the presence of ATM7 ([7]; 1 μM ATM7, 112C mutant, vehicle treated 365%±40%): 375%±45%
effect on MDMA-elicited efflux [7]: had no effect on MDMA-elicited efflux
effect on MDMA-elicited efflux ([7]; listed as KM-986): does not show KM-986-mediated potentiation of MDMA-elicited efflux
effect on affinity for MDMA ([8]; 1 μM ATM7): not affected
efficacy of MDMA in eliciting release of intracellular serotonin in the presence of ATM7 ([8]; 1 μM ATM7, vehicle treated 380%±10%): 510%±17%
effect on MDMA-elicited efflux [8]: enhanced MDMA-elicited efflux
effect on MDMA-elicited efflux ([8]; listed as KM-986): potentiates MDMA-elicited efflux

CNC(C)Cc1ccc2c(c1)OCO2 (racemic) [(±)MDMA, methylenedioxy-methamphetamine]
Ki [9]: 2.7 ± 0.5 µM
reversal of transport (efflux) [10]: did not elicit any significant reversal of transport
affinity for MDMA of mutant versus wild-type ([7]; N112C, dose-response experiment with MDMA): reduced by fivefold
Ki [11]: 313 ± 159 µM

Cc1cc2nc(-c3ccc(SCC(=O)Nc4ccc(S(=O)(=O)NC5CC5)cc4)nc3)[nH]c2cc1C [ATM1, N-[4-(cyclopropylsulfamoyl)phenyl]-2-{[5-(5,6-dimethyl-1H-benzimidazol-2-yl)-2-pyridinyl]sulfanyl}acetamide]
effect on affinity of fluoxetine for SERT [12]: decreasing their affinity for SERT
effect on SERT function [13]: not affected
effect on SERT uptake activity / specificity [4]: SERT-specific inhibitor
mechanism of SERT inhibition ([4]; Vmax and KM): non-competitive mechanism
effect on SERT uptake activity / specificity ([4]; listed as KM-456): specific for SERT

CCc1ccc2[nH]c3nc(SCCNS(=O)(=O)c4ccc(NC(C)=O)cc4)nnc3c2c1 [ATM5]
effect on amphetamine-mediated efflux [14]: potentiated amphetamine-mediated efflux; also recorded: potentiated amphetamine mediated efflux
effect on DAT uptake activity / specificity [3]: higher activity towards hDAT than hSERT
shape of concentration response on hDAT uptake [3]: biphasic activity enhancing hDAT activity at low concentrations and inhibiting hDAT function at higher concentrations
effect on DAT uptake activity / specificity ([3]; listed as KM-822): specific for DAT
effect on amphetamine-elicited efflux [15]: blocking amphetamine-elicited efflux; also recorded: blocked
affinity of mutant for ATM5 versus WT [16]: increased affinity for ATM5

Reference: US9616065B2, “Compositions useful in treating brain-related diseases or disorders and methods using same” (priority 2013, dated 2017)
